Test results: patent US8945595B2, “Insect repellent and attractants” (The Regents of the University of California, priority 2009, dated 2015)

Tests used:
[1] = tested on: CO2 sensitive A neuron of peg sensillum; test: activation of CO2 sensitive neuron with a volatile odorant; format: cell-based, Culex quinquefasciatus; conditions: indicated concentrations
Experimental: (§1) FIG. 2 depicts electrophysiology measurements of the peg sensillum on the mosquito maxillary palp. The palp, indicated in brown in the schematic of the mosquito head, has several peg sensilla. Each peg sensilla (grey club-like structure in the center) contains three olfactory neurons A, B and C as indicated, of which the ‘A’ neuron gives a robust and specific increase in frequency of action potentials in response to a stimulus of CO2. Extracellular single-unit recordings are performed by inserting a glass microelectrode into the peg sensilla, and puffing an odor such as CO2 towards the mosquito maxillary palps. The signal is amplified to obtain the trace of action potentials.
(§2) (a) Action potential traces from the peg sensillum of the maxillary palp show spike amplitudes from three neurons, where the spikes with the largest amplitude belongs to the CO2 sensitive A neuron. (b) 1 sec of the indicated dilution 2,3-butanedione is puffed to Aedes aegypti. (c) 1 sec of indicated odor is puffed to Anopheles gambiae. (d) butanone and (e) 2,3-butanedione are given to Culex quinquefasciatus at the indicated concentrations. PO=paraffin oil. n=5. Baseline activity subtracted. Error bars indicate SEM.

[2] = tested on: CO2 sensitive A neuron of peg sensillum; test: as above; format: cell-based, Aedes aegypti; conditions: 1 sec puff, indicated dilution
Experimental: as §1, §2

For `CC(=O)C(C)=O` [2,3-butanedione], the “activation of CO2 sensitive neuron” value [1] was “activation” and the “activation of CO2 sensitive neuron” value [2] was “activation”.
